From patent publication US8697742B2, “BCRP/ABCG2 inhibitor” (Kabushiki Kaisha Yakult Honsha, priority 2005, dated 2014) come the findings set out here.

≈ marks a conversion by molar mass, not a printed value. Structures can show the parent of a compound that is named as a salt.

By EC50 is commonly meant the concentration at which the effect is half-maximal.

The first assay deals with A549/SN-38-4 cells. The assay is described as follows: Effect of overcoming SN-38 resistance of BCRP-expressing A549/SN-38-4 cells. It counts as cell-based, human. Conditions: Homo sapiens, A549, 48 h, concentration for 50% reduction of relative SN-38 resistance value (IC50 A549/SN-38-4 / IC50 A549); 48 hours culture with SN-38; read-out: Effect of overcoming resistance EC50. The procedure: The human lung cancer A549 cells or the A549/SN-38-4 cells were suspended in a Ham's F-12 medium containing 10% FBS, 100 U/mL of penicillin, and 100 μg/mL of streptomycin (10% FBS/Ham's F-12), and the resultant suspension was inoculated into a 96-well microplate (2×10^3 cells/50 μL/well), followed by culturing at 5% CO2 and 37° C. overnight. […] After completion of culturing, the number of viable cells was counted by use of a viable cell counting reagent [TetraColor ONE (trademark), product of Seikagaku Corporation] according to the attached instruction manual. […] The greater the relative resistance value, the higher the level of acquired resistance.
For the compound `COc1ccc(/C(C#N)=C/c2ccc(Br)o2)cc1OC` [Compound 54, (Z)-3-(5-bromo-furan-2-yl)-2-(3,4-dimethoxy-phenyl)-acrylonitrile], the EC50 turned out to be 0.036 mg/L (≈ 0.108 µM).
The same measure, in the same setting: the same measure for `CCN(CC)CC(=O)OC1CCN(c2ccc(/C=C(\C#N)c3ccc(OC)c(OC)c3)s2)CC1.Cc1ccc(S(=O)(=O)O)cc1` [Compound 96, 1-[5-[(Z)-2-cyano-2-(3,4-dimethoxy-phenyl)-vinyl]-thiophen-2-yl]-piperidin-4-yl diethylamino-acetate p-toluenesulfonate]: 0.12 mg/L; for `COc1ccc(/C(C#N)=C/c2ccc(N3CCN(CCO)CC3)s2)cc1OC.O=S(=O)(O)O` [Compound 101, (Z)-2-(3,4-dimethoxy-phenyl)-3-{5-[4-(2-hydroxy-ethyl)-piperazin-1-yl]-thiophen-2-yl}-acrylonitrile sulfate]: 0.013 mg/L; for `CCN(CC)CCN(C)C(=O)CCC(=O)OC1CCN(c2ccc(/C=C(\C#N)c3ccc(OC)c(OC)c3)s2)CC1` [Compound 98, 1-[5-[(Z)-2-cyano-2-(3,4-dimethoxy-phenyl)-vinyl]-thiophen-2-yl]-piperidin-4-yl N-(2-diethylamino-ethyl)-N-methyl-succinamate hydrochloride]: 0.1 mg/L.
As for `COc1ccc(/C(C#N)=C/c2ccc(N3CCC(OC(=O)CN(C)C)CC3)s2)cc1OC.Cc1ccc(S(=O)(=O)O)cc1` [Compound 62, 1-[5-[(Z)-2-cyano-2-(3,4-dimethoxy-phenyl)-vinyl]-thiophen-2-yl]-piperidin-4-yl dimethylamino-acetate p-toluenesulfonate], the EC50 turned out to be 0.062 mg/L.
Regarding `COc1ccc2nc(Cl)c(/C=C(\C#N)c3ccsc3)cc2c1` [Compound 82, (Z)-3-(2-chloro-6-methoxy-quinolin-3-yl)-2-thiophen-3-yl-acrylonitrile], the EC50 came to 0.078 mg/L (≈ 0.239 µM).
As for `COc1ccc(/C(C#N)=C/c2ccc(N3CCN(CCO)CC3)s2)cc1OC` [Compound 9, (Z)-2-(3,4-dimethoxy-phenyl)-3-{5-[4-(2-hydroxy-ethyl)-piperazin-1-yl]-thiophen-2-yl}-acrylonitrile], the EC50 is 0.046 mg/L (≈ 0.115 µM).
For the compound `CCN(CC)c1ccc(NC(=O)CCC(=O)OC2CCN(c3ccc(/C=C(\C#N)c4ccc(OC)c(OC)c4)s3)CC2)cc1` [Compound 99, 1-[5-[(Z)-2-cyano-2-(3,4-dimethoxy-phenyl)-vinyl]-thiophen-2-yl]-piperidin-4-yl N-(4-diethylamino-phenyl)-succinamate], the concentration giving a half-maximal response (EC50) was 0.063 mg/L (≈ 0.102 µM).
With `COc1ccc2nc(Cl)c(/C=C(\C#N)c3ccccn3)cc2c1` [Compound 79, (Z)-3-(2-chloro-6-methoxy-quinolin-3-yl)-2-pyridin-2-yl-acrylonitrile], the EC50 stood at 0.006 mg/L (≈ 0.0186 µM).
On the same count and under the same terms, the result for `COc1ccc2nc(Cl)c(/C=C(\C#N)c3cccnc3)cc2c1` [Compound 80, (Z)-3-(2-chloro-6-methoxy-quinolin-3-yl)-2-pyridin-3-yl-acrylonitrile] reads 0.019 mg/L (≈ 0.059 µM); that for `COc1ccc(-c2cc(/C=C(\C#N)c3ccc(OC)c(OC)c3)no2)cc1` [Compound 77, (Z)-2-(3,4-dimethoxy-phenyl)-3-[5-(4-methoxy-phenyl)-isoxazol-3-yl]-acrylonitrile], 0.11 mg/L (≈ 0.304 µM).
On to `N#C/C(=C\c1ccnc2ccccc12)c1cccnc1` [Compound 86, (Z)-2-pyridin-3-yl-3-quinolin-4-yl-acrylonitrile], for which the half-maximal effective concentration (EC50) was 0.12 mg/L (≈ 0.466 µM).
Same read-out and setting: the same measure for `COc1ccc(/C(C#N)=C/c2ccc3c(c2)CCO3)cc1OC` [Compound 75, (Z)-3-(2,3-dihydro-benzofuran-5-yl)-2-(3,4-dimethoxy-phenyl)-acrylonitrile]: 0.017 mg/L (≈ 0.0553 µM); for `COc1ccc(/C(C#N)=C/c2ccc(N3CCN(CCO)CC3)s2)cc1OC.CS(=O)(=O)O` [Compound 59, (Z)-2-(3,4-dimethoxy-phenyl)-3-{5-[4-(2-hydroxy-ethyl)-piperazin-1-yl]-thiophen-2-yl}-acrylonitrile methanesulfonate]: 0.061 mg/L; for `COc1ccc(/C=C(\C#N)c2nc3ccccc3s2)cc1OC` [Compound 74, (E)-2-benzothiazol-2-yl-3-(3,4-dimethoxy-phenyl)-acrylonitrile]: 0.021 mg/L (≈ 0.0651 µM).
Still for that read-out and setting: the same measure for `Cn1cc(/C=C(\C#N)c2nc3ccccc3s2)c2ccccc21` [Compound 92, (E)-2-benzothiazol-2-yl-3-(1-methyl-1H-indol-3-yl)-acrylonitrile]: 0.041 mg/L (≈ 0.13 µM); for `CCN(CC)C(=O)OC1CCN(c2ccc(/C=C(\C#N)c3ccc(OC)c(OC)c3)s2)CC1` [Compound 97, 1-[5-[(Z)-2-cyano-2-(3,4-dimethoxy-phenyl)-vinyl]-thiophen-2-yl]-piperidin-4-yl diethyl-carbamate]: 0.078 mg/L (≈ 0.166 µM).
Consider `COc1ccc(/C(C#N)=C/c2ccc(N(C)CCN(C)C)s2)cc1OC` [Compound 10, (Z)-2-(3,4-dimethoxy-phenyl)-3-{5-[(2-dimethylamino-ethyl)-methyl-amino]-thiophen-2-yl}-acrylonitrile], for which the 50% effective concentration (EC50) stood at 0.12 mg/L (≈ 0.323 µM).
In the case of `COc1ccc2nc(Cl)c(/C=C(\C#N)c3ccc(OC)c(OC)c3)cc2c1` [Compound 73, (Z)-3-(2-chloro-6-methoxy-quinolin-3-yl)-2-(3,4-dimethoxy-phenyl)-acrylonitrile], the EC50 was determined as 0.011 mg/L (≈ 0.0289 µM).
The same measure, in the same setting: the same measure for `N#C/C(=C\c1ccnc2ccccc12)c1ccccn1` [Compound 85, (Z)-2-pyridin-2-yl-3-quinolin-4-yl-acrylonitrile]: 0.23 mg/L (≈ 0.894 µM); for `COc1ccc(/C(C#N)=C/c2c3ccccc3c(Cl)c3ccccc23)cc1OC` [Compound 93, (Z)-3-(10-chloro-anthracen-9-yl)-2-(3,4-dimethoxy-phenyl)-acrylonitrile]: 0.28 mg/L (≈ 0.7 µM).
Regarding `N#C/C(=C\c1csc2ccccc12)c1nc2ccccc2s1` [Compound 90, (E)-3-benzo[b]thiophen-3-yl-2-benzothiazol-2-yl-acrylonitrile], the EC50 was determined as 0.46 mg/L (≈ 1.44 µM).
Regarding `N#C/C(=C\c1ccnc2ccccc12)c1cccs1` [Compound 87, (E)-3-quinolin-4-yl-2-thiophen-2-yl-acrylonitrile], the EC50 turned out to be 0.046 mg/L (≈ 0.175 µM).
Take `COc1ccc(/C=C(\C#N)c2ccc(OC)c(OC)c2)cn1` [Compound 35, (Z)-2-(3,4-dimethoxy-phenyl)-3-(6-methoxy-pyridin-3-yl)-acrylonitrile]: the EC50 came to 0.19 mg/L (≈ 0.641 µM).
On to `COc1ccc(/C(C#N)=C/c2ccc(Br)s2)cc1OC` [Compound 2, (Z)-3-(5-bromo-thiophen-2-yl)-2-(3,4-dimethoxy-phenyl)-acrylonitrile], for which the EC50 amounted to 0.13 mg/L (≈ 0.371 µM).

The same assay, now with this note: concentration for 50% reduction of relative SN-38 resistance value (IC50 A549/SN-38-4 / IC50 A549); 48 hours culture with SN-38.
Consider `COc1ccc(/C(C#N)=C/c2ccc(N3CCC(OC(=O)CCC(=O)N4CCC(N5CCCCC5)CC4)CC3)s2)cc1OC.Cl` [Compound 64, 1-[5-[(Z)-2-cyano-2-(3,4-dimethoxy-phenyl)-vinyl]-thiophen-2-yl]-piperidin-4-yl 4-[1,4′]bipiperidinyl-1′-yl-4-oxo-butylate hydrochloride], for which the “Effect of overcoming resistance EC50” value amounted to 0.053 mg/L.
On the same count and under the same terms, the result for `COc1ccc(/C(C#N)=C/c2cc3ccccc3o2)cc1OC` [Compound 69, (Z)-3-benzofuran-2-yl-(3,4-dimethoxy-phenyl)-acrylonitrile] reads 0.043 mg/L; that for `COc1ccc(/C(C#N)=C/c2ccc(N3CCN(CCO)CC3)s2)cc1OC.COc1ccc(/C(C#N)=C/c2ccc(N3CCN(CCO)CC3)s2)cc1OC.O=S(=O)(O)O` [Compound 100, (Z)-2-(3,4-dimethoxy-phenyl)-3-{5-[4-(2-hydroxy-ethyl)-piperazin-1-yl]-thiophen-2-yl}-acrylonitrile ½ sulfate], 0.012 mg/L.
For `COc1ccc(/C(C#N)=C/c2ccc(-c3cccc(N)c3)o2)cc1OC` [Compound 22, (Z)-3-[5-(3-amino-phenyl)-furan-2-yl]-2-(3,4-dimethoxy-phenyl)-acrylonitrile], the “Effect of overcoming resistance EC50” value worked out at 0.013 mg/L.
Same read-out and setting: the same measure for `COc1ccc(/C=C(\C#N)c2coc3ccccc23)cc1OC` [Compound 72, (Z)-2-benzofuran-3-yl-3-(3,4-dimethoxy-phenyl)-acrylonitrile]: 0.011 mg/L; for `COc1ccc(/C(C#N)=C/c2ccc(N3CCC(OC(=O)CCC(=O)O)CC3)o2)cc1OC` [Compound 51, mono-(1-{5-[(Z)-2-cyano-2-(3,4-dimethoxy-phenyl)-vinyl]-furan-2-yl}-piperidin-4-yl)succinate]: 0.51 mg/L.

The same assay, now with this note: concentration for 50% reduction of relative SN-38 resistance value (IC50 A549/SN-38-4 / IC50 A549); 48 hours culture with SN-38; hydrochloride.
With `COc1ccc(/C=C(\C#N)c2ccccn2)cc1OC` [Compound 47, (Z)-3-(3,4-dimethoxy-phenyl)-2-pyridin-2-yl-acrylonitrile hydrochloride], the “Effect of overcoming resistance EC50” value came out at 0.03 mg/L.
Take `COc1ccc(/C(C#N)=C/c2cccnc2)cc1OC` [Compound 36, (Z)-2-(3,4-dimethoxy-phenyl)-3-pyridin-3-yl-acrylonitrile hydrochloride]: the “Effect of overcoming resistance EC50” value is 0.12 mg/L.
Still for that read-out and setting: the result for `COc1ccc(/C(C#N)=C/c2ccc(N3CCN(C)CC3)o2)cc1OC` [Compound 29, (Z)-2-(3,4-dimethoxy-phenyl)-3-[5-(4-methyl-piperazin-1-yl)-furan-2-yl]-acrylonitrile hydrochloride] reads 0.42 mg/L; that for `COc1ccc(/C(C#N)=C/c2ccc(N3CCN(CCO)CC3)o2)cc1OC` [Compound 50, (Z)-2-(3,4-dimethoxy-phenyl)-3-{5-[4-(2-hydroxy-ethyl)-piperazin-1-yl]-furan-2-yl}-acrylonitrile hydrochloride], 0.11 mg/L.
